Legend:
[1] = system: Advillin^Cre and Mecp^2f/y mice and control littermates; test: Tactile prepulse inhibition (PPI): startle response to a 125 dB noise preceded by a light air puff; format: in vivo; settings: i.p., 2 mg/kg vs saline, both Mecp2 mutants and controls
Method: FIG. 1 is a graph showing percent inhibition of the startle response to a 125 dB noise, when the startle noise is preceded by a light air puff in mice following i.p. administration of either saline or 2 mg/kg midazolam treatment. Two-way ANOVA with post-hoc Sidak's test, *, p<0.05.

[2] = system: Advillin^Cre and Mecp^2f/y mice and control littermates; test: Magnitude of startle response to a 125 dB noise; format: in vivo; settings: i.p., 2 mg/kg vs saline, all mice
Method: FIG. 3 is a graph showing magnitude of startle response to a 125 dB noise in mice following i.p. administration of either saline or 2 mg/kg midazolam treatment. Responses are expressed as percent of startle response to a 125 dB noise. Two-way ANOVA with post-hoc Sidak's test, *, p<0.05.

In the case of `Cc1ncc2n1-c1ccc(Cl)cc1C(c1ccccc1F)=NC2` [midazolam], the “tactile sensitivity (percent inhibition of the startle response to a 125 dB noise when preceded by a light air puff, tactile PPI)” value [1] is reported as “significantly attenuated tactile sensitivity”, the sedation ([2]; evidenced by startle amplitude) is reported as “caused significant sedation” and the “reduction in startle amplitude” value ([2]; startle to 125 dB noise) is reported as roughly 50%.

— patent US12077512B2, “Compositions and methods for reducing tactile dysfunction, anxiety, and social impairment” (President and Fellows of Harvard College, priority 2019, dated 2024)
